The subject of data set [1] is H460 cell line. Kind of data set: Hypoxia-dependent cytotoxicity experiment (2 hours exposure, air or N2, CTG). The class given is cell-based. The settings on record: Homo sapiens, then 3 days. How it is done:
To determine the effect of the compounds of the present disclosure on cancer cell proliferation, these compounds were tested for cancer cell anti-proliferative activity in a porous CTG-based assay. Cell growth was compared in the present (treatment groups) and the absence of the test compound. 10,000 cells/well/495 μL of medium was used to test the following cell line, a human tumor cell line of H460 non-small cell lung cancer. The cells were seeded on glass-inserts located in each well of 24-well plates with a density and medium as specified above. 24 hours later, the plates were divided into 2 groups, hypoxia (using N2) group and air group. TH-302 at the concentrations from 100, 10, 0.1 to 0.01 μM, and the test compounds at the concentrations from 10, 1, 0.1, 0.01, 0.001 to 0.0001 were added to each well (500 μL volume) of the treatment groups. The final DMSO concentration in each well was lower than or equal to 1%. The cells in the hypoxia group were incubated for 2 hours in an ELECTROTEK hypoxia workstation. The cells in the air group were incubated for 2 hours in a standard culture incubator. 2 hours later, the test compounds were removed from each well. The cells were washed with 500 μL of medium and incubated in 500 μL of fresh medium for 3 days. 3 days later, 200 μL of medium per well was discarded. 60 μL of CTG was added to the wells, and the plates were placed at room temperature for 15 minutes in the dark. 100 μL of medium from each well of the 24-well plates was transferred to 96-well plates. The chemiluminescence signal values were read with an M5 full-band multi-mode-function microplate reader, and integration=750 ms. The compounds of control 1 and control 2 were used as controls.

The test system of data set [2] is H460 non-small cell lung cancer. Kind of data set: Cytotoxicity test of human tumor cell line in vitro (CTG, 72 hours). The class given is cell-based. The following applies: Homo sapiens, NCI-H460; H460, 72 hours exposure. How it is done: IC50 values were obtained by the following methods. The cancer cells were exposed to various concentrations of compounds for 72 hours. Following by washing steps, fresh medium was added to allow the growth of the cancer cells. The cancer cells were stained to obtain cell viability. Then, comparisons were made with the medium-only control.
Specifically, the exponentially growing cells were seeded in 96-well plates at a density of 2×10^3 cells/well, and 100 μL/well. The cells were incubated for 24 hours at 37° C., in 5% CO2, in 95% air, and 100% relative humidity. Next, 99 μL of culture medium was added. The compounds were dissolved in 100% DMSO at 200 times the desired final test concentration. Upon addition of compounds, the compounds were further diluted to 4 times the desired final concentration with a complete medium. Aliquots of 1 μL of compounds at specific concentration were added to the micro-wells containing 199 μL of medium to obtain the final compound concentrations as reported. After the compounds were added, the plates were incubated for an addition 72 hours at 37° C., in 5% CO2, in 95% air, and 100% relative humidity.
The plates to be test containing the cells were equilibrated at room temperature for 30 minutes, and 100 μL of medium per well was discarded. 100 μL of CTG reagent (CelltiterGlo Kit) was added to each well. The plates were placed in a fast-shaker to shake for 2 minutes, and placed at room temperature for 30 minutes in the dark. Chemoluminescence signal values were read with Envision instrument.

The nature of data set [3]: Maximal tolerance dose (MTD) experiment. The following applies: for Effect on animal body weight: after intravenous injection in mice; for Gross necropsy of the surviving animals: after the recovery period; for MTD at 5 days: both sexes, ICR, mouse, in vivo, iv; for Average food intake vs normal mice: each administration group. The class given is in vivo, ICR mice. How it is done:
18 ICR mice, 9 females/9 males, were selected for the experiment. According to gender and body weight, the mice were randomly divided into a 10 mg/kg group, a 20 mg/kg group, and a 40 mg/kg group of the S-configuration of compound 01, with 3 females/3 males in each group. By intravenous injection, the 10 mg/kg group of the S-configuration of compound 01 was administered with 1 mg/ml of the administration concentration, 10 ml/kg of the administration volume, and 10 mg/kg of the dose. The 20 mg/kg group containing the S-configuration of compound 01 was administered with 2 mg/ml of the administration concentration, 10 ml/kg of the administration volume, and 20 mg/kg of the dose. The 40 mg/kg group containing the S-configuration of compound 01 was administered with 4 mg/ml of the administration concentration, 10 ml/kg of the administration volume, and 40 mg/kg of the dose. The mice was administered once a day for 5 consecutive days, and recovered for 2 weeks after the last administration. The mice were closely observed for 2 hours after administration of the daily drug. The mice were observed twice a day in the morning and afternoon on the non-administration day. During the experiment, body weight and food intake were measured twice a week. The dead animals and all the survival animals were subjected to gross necropsy on the 14th day after the last administration. The diseased organic were grossly necropsied for histopathological examination.
18 ICR mice, 9 females/9 males, were selected for the experiment. According to gender and body weight, the mice were randomly divided into a 10 mg/kg group, a 20 mg/kg group, and a 40 mg/kg group of the R-configuration of compound 01, with 3 females/3 males in each group. By intravenous injection, the 10 mg/kg group of the R-configuration of compound 01 was administered with 1 mg/ml of the administration concentration, 10 ml/kg of the administration volume, and 10 mg/kg of the dose. The 20 mg/kg group of the R-configuration of compound 01 was administered with 2 mg/ml of the administration concentration, 10 ml/kg of the administration volume, and 20 mg/kg of the dose. The 40 mg/kg group of the R-configuration of compound 01 was administered with 4 mg/ml of the administration concentration, 10 ml/kg of the administration volume, and 40 mg/kg of the dose. The mice was administered once a day for 5 consecutive days, and recovered for 1 week after the last administration. […] To find the maximum tolerated dose, a second cycle of dosing was required. The doses were adjusted and administered for 5 consecutive days.
The mice were closely observed for 2 hours after administration of the daily drug. The mice were observed twice a day in the morning and afternoon on the non-administration day. During the experiment, body weight and food intake were measured twice a week. The dead animals and all the survival animals were subjected to gross necropsy on the 14th day after the last administration. The diseased organic were grossly necropsied for histopathological examination.

Setting [4] is: NCI-H460, H460, air, read-out: Normoxia: IC50.
Where [5] appears, read: NCI-H460, H460, hypoxia (N2), read-out: N2: IC50.
[6] abbreviates: ICR mice, intravenous injection, once a day for 5 consecutive days, read-out: Maximum tolerated dose / MTD result.

pIC50: −log10 of the molar value. Read-outs that look alike come from different tables or passages of the source.

Usually pIC50 stands for the IC50 on a negative log10 scale, so that one unit is a factor of ten.

For the compound `O=[N+]([O-])c1ccc(C(OP(=O)(N2CC2)N2CC2)C(F)(F)F)cc1` (stereo not drawn) [Control 2, reference compound], the figures for the pIC50 in data set [1] (setting [4]), in data set [1] (setting [5]) and in data set [2] were 4.81, 5.15 and 6.18, respectively.

Turning to `O=[N+]([O-])c1c(COP(=O)(N2CC2)N2CC2)ccc2ccccc12` [Compound 03], the pIC50 in data set [1] (setting [4]) was 5.00; in data set [1] (setting [5]), 6.20; in data set [2] it was 6.09.

Turning to `O=[N+]([O-])c1ccc([C@@H](OP(=O)(N2CC2)N2CC2)C(F)(F)F)c2ccccc12` [R-configuration of compound 01], the “Animal death after the first 5 consecutive days” value in data set [3] (10, 20 and 40 mg/kg groups, first cycle) is recorded as “no animal death”. Also, the Animals died in data set [3] (10/80 mg/kg group (1st cycle 10 mg/kg, 2nd cycle 80 mg/kg)) was 1 of the 6; in data set [3] (20/60 mg/ml group) it was 3 of the 6; in data set [3] (40/40 mg/kg group) it was 1 of the 6. Further, the “Maximum tolerated dose / MTD result” value in data set [3] (ICR mice, intravenous injection, once a day for 5 consecutive days) was in the range of 20 to 40 mg/kg. Besides, the “Effect on animal body weight” value in data set [3] was “increased slowly”. For the same compound, in data set [3], the “Gross necropsy of the surviving animals” value was “on obvious gross pathological changes”. Moreover, the MTD at 5 days in data set [3] (ICR mice, intravenous injection, first cycle, read-out: Maximum tolerated dose) was over 40 mg/kg; in data set [3] (setting [6]), 20 to 40 mg/kg; in data set [3] (ICR mice, intravenous injection, second cycle, read-out: Maximum tolerated dose), under 40 mg/kg. For the same compound, in data set [3], the “Average food intake vs normal mice” value is “no significant difference”. The “Clinical symptoms after administration” value in data set [3] (first cycle, 10/80 mg/kg group) is “in good condition”; in data set [3] (first cycle, 20/60 mg/kg group), “unsteady gait”; in data set [3] (first cycle, 40/40 mg/kg), “intermittent gait unsteady, accelerated breathing, and increased spontaneous activity”; in data set [3] (second cycle, 10/80 mg/kg), “abnormal gait, decreased muscle tension, decreased spontaneous activity, irregular breathing, unsteady gait, accelerated breathing, erect hair, spasm, deepened breathing, prone, and arched back”; in data set [3] (second cycle, 20/60 mg/kg) it was “intermittent deepened breathing, decreased spontaneous activity, unsteady gait, irregular breathing, increased spontaneous activity, accelerated breathing, unsteady gait, and prone”; in data set [3] (second cycle, 40/40 mg/kg) it was “intermittent unsteady gait, deepened breathing, accelerated breathing, increased spontaneous activity, and abnormal gait”.

In the case of `CC(OP(=O)(N1CC1)N1CC1)c1ccc([N+](=O)[O-])c2ccccc12` (stereo not drawn) [Compound 26], the pIC50 in data set [1] (setting [4]) was 7.42; in data set [1] (setting [5]) it was over 8.01; in data set [2], 7.04.

In the case of `O=[N+]([O-])c1ccc([C@H](OP(=O)(N2CC2)N2CC2)C(F)(F)F)c2ccccc12` [S-configuration of compound 01], the “Clinical symptoms after administration” value in data set [3] (10 mg/kg group and 20 mg/kg group) is reported as “in good condition”. Besides, the “Clinical symptoms after administration” value in data set [3] (40 mg/kg group) was “unsteady gait, deepened breathing, accelerated breathing, and decreased spontaneous activity”. Besides, in data set [3] (40 mg/kg group, i.v., 5 consecutive days), the Animals died is 3 of the 6. Further, in data set [3], the “Effect on animal body weight” value is “increased slowly”, the “Gross necropsy of the surviving animals” value is listed as “on obvious gross pathological changes” and the “Average food intake vs normal mice” value is reported as “no significant difference”. Besides, in data set [3] (setting [6]), the MTD at 5 days turned out to be 20 mg/kg.

The values are drawn from patent US20230026163A1, “ANTICANCER COMPOUND AND MEDICAL USE THEREOF” (ASCENTAWITS PHARMACEUTICALS, LTD., priority 2019, published 2023).
